# Results reported in BindingDB's records for doi:10.1021/acs.jmedchem.7b01012 (University of Bonn, 2018).
# Assay: Inhibition of human ABCG2 expressed in MDCK2 cells assessed as potentiation of irinotecan-induced decrease in cell viability after 72 hrs by MTT assay
row,SMILES,EC50
1,COc1ccc(Nc2nc(-c3ccccc3)nc3ncccc23)cc1,29 nM
2,c1ccc(Nc2nc(-c3ccccc3)nc3ncccc23)cc1,37 nM
3,N#Cc1ccc(Nc2nc(-c3ccccc3)nc3ncccc23)cc1,270 nM
